This is an account of results in US20240082272A1, “COMPOSITIONS AND METHODS FOR TREATING WNT-DRIVEN CANCER” (The Regents of the University of Michigan, priority 2020, published 2024).

One assay relates to NCI-H295R. The assay is described as follows: RNA-seq transcriptome of NCI-H295R after drug treatment. The format is cell-based. To be noted: for differentially expressed genes overlapping between EZH2i and CBPi: 96-hour IC-50 administration. As to the method: FIG. 6. Forskolin induces faithful zF differentiation and steroidogenesis in NCI-H295R. […] The induction of immediate early response programs is consistent with known mechanisms of action of PKA.
(§1) FIG. 21. EZH2i and CBPi redundantly disrupt the NCI-H295R transcriptome. […] Right, gene expression changes induced by EZH2i and CBPi are strongly correlated. […] C.
To evaluate if EZH2i disrupted zF differentiation, the NCI-H295R was treated with the zF differentiation agent forskolin and the transcriptome was profiled by RNA-seq. Despite that CIMP-high as a class is at the zF differentiation maximum across human ACC (FIG. 5), the presence of mutant CTNNB1 in this cell line and high levels of nuclear β-catenin are likely to enable faithful responsiveness to forskolin and refractory response to Wnt/β-catenin stimulants, analogously to the Y1 cell line.
The NCI-H295R response to CBPi was evaluated by RNA-seq and compared to the NCI-H295R response to EZH2i. […] Similarly to EZH2i, CBPi induces downregulation of all core modules that define CIMP-high ACC (FIG. 22). Taken together, the results point to adrenocortical differentiation as a targetable therapeutic vulnerability selected for in CIMP-high ACC.

In a further assay the test system is NCI-H295R, ATC7L, and Y1. Kind of assay: Viability of ACC cell lines with CBPi alone or combined with EZH2i. The class given is cell-based. To be noted: increasing doses of CBPi combined with EZH2i at the IC-50 dose for each cell line; all ACC cell lines. As to the method: FIG. 20. EZH2i and CBPi are synergistic in ACC cell lines. NCI-H295R, ATC7L, and Y1 were treated with increasing doses of CBPi (PRI-724), alone or in combination with EZH2i at the IC-50 dose for each cell line (EZH2i viability curves for ATC7L and Y1 not shown).
ACC cell lines were treated with a specific and irreversible inhibitor of the H3K27 acetyltransferase CBP (PRI-724 (Kahn, 2014)). CBP regulates H3K27ac deposition genome-wide including at enhancers, and CBP-dependent H3K27ac deposition is required for enhancer activity (Merika et al., 1998; Raisner et al., 2018). Cell lines received the CBP inhibitor (CBPi) either alone or combination with EZH2i at the determined IC-50 dose for that cell line.

The subject of the next assay is HSD3B2. The assay is described as follows: HSD3B2 expression by qPCR in NCI-H295R. The format is cell-based. As to conditions: doses under the IC-50.
Description: FIG. 7. EZH2i reverses zF differentiation. […] Representative experiment shown, n>3. C.
as §1

For assay [1], the system named is subcutaneous, immunodeficient xenograft model of adrenal cancer. Kind of assay: Subcutaneous xenograft model of adrenal cancer. The format is in vivo, mouse. As to conditions: 200 mg/kg PO daily, compared to vehicle. As to the method:
To test if disruption of SF1/β-catenin complexes in vivo can cause dedifferentiation (Example 1 and 2) and disrupt tumor growth, the impact of EZH2 inhibition on a xenograft model derived from the Borges et al. Oncogene 2020 genetically engineered mouse model detailed in FIG. 25 was assayed.

Consider `C[C@H]1[C@H]2N(C(=O)CN(C)N2C(=O)NCc2ccccc2)[C@@H](Cc2ccc(OP(=O)(O)O)cc2)C(=O)N1Cc1cccc2cccnc12` [PRI-724], for which, in the assay with NCI-H295R, the “steroidogenesis (RNA-seq)” value is “potent downregulation of steroidogenesis”; the “differentially expressed genes overlapping between EZH2i and CBPi” value is reported as approximately 70%. In the assay with NCI-H295R, ATC7L, and Y1, the “loss of viability in combination” value is given as “synergistic”. The HSD3B2 expression result with HSD3B2 was “dose-dependent downregulation”.
With `CCN(c1cc(-c2ccc(CN3CCOCC3)cc2)cc(C(=O)NCc2c(C)cc(C)[nH]c2=O)c1C)C1CCOCC1` [EPZ-6438], the tumor growth result in assay [1] is given as “decreases tumor growth”. In addition, the “expression of SF1” value in assay [1] (immunohistochemistry) is on record as “decreasing expression of SF1”. Besides, the “differentially expressed genes overlapping between EZH2i and CBPi” value with NCI-H295R was approximately 70%.
